Measurements as given in paper PMC12090182, “Repurposing of the RIPK1-Selective Benzo[1,4]oxazepin-4-one Scaffold for the Development of a Type III LIMK1/2 Inhibitor” (ACS Chemical Biology, 2025).
Read-outs that look alike come from different tables or passages of the source.

Experiments:
Assay in all cases: biochemical
Type in all cases: binding
[1] = molecular target: 468 kinases including some pathogenic mutants (Homo sapiens, UniProt O94921); details: PFTK1 (Entrez CDK14), 100 nM; read-out: Percent Control
[2] = molecular target: 468 kinases including some pathogenic mutants (Homo sapiens, UniProt P00519, F317I); details: read-out: Percent Control
[3] = molecular target: 468 kinases including some pathogenic mutants (Homo sapiens, UniProt P00519, Q252H)
[4] = molecular target: 468 kinases including some pathogenic mutants (Homo sapiens, UniProt P00533, G719S); details: read-out: Percent Control
[5] = molecular target: 468 kinases including some pathogenic mutants (Homo sapiens, UniProt P04629); details: TRKA (Entrez NTRK1), 100 nM; read-out: Percent Control
Chain of 468 kinases including some pathogenic mutants (Homo sapiens, UniProt P04629) (P04629 33-796, change not shown): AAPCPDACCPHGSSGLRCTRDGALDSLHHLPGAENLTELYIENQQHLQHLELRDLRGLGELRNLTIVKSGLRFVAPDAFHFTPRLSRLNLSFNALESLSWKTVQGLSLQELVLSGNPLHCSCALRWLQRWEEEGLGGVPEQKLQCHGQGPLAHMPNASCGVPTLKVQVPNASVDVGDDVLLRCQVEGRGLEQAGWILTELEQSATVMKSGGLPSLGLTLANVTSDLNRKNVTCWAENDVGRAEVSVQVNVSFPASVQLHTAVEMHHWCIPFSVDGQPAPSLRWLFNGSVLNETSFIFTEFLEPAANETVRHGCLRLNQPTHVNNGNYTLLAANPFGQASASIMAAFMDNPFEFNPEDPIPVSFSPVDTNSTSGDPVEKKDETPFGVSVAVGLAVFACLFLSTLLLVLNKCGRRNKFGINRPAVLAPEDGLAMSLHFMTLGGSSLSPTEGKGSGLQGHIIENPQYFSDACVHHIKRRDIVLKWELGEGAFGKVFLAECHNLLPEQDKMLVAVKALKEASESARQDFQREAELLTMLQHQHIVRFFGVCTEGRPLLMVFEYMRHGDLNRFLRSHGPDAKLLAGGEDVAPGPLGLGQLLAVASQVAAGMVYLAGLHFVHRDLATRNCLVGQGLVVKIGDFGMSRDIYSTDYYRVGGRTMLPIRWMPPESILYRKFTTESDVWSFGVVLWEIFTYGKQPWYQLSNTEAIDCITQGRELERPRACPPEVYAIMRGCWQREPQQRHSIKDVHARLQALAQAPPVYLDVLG

[6] = molecular target: 468 kinases including some pathogenic mutants (Homo sapiens, UniProt P0C1S8); details: WEE2 (Entrez WEE2), 100 nM; read-out: Percent Control
Chain of 468 kinases including some pathogenic mutants (Homo sapiens, UniProt P0C1S8) (P0C1S8 whole entry, change not shown): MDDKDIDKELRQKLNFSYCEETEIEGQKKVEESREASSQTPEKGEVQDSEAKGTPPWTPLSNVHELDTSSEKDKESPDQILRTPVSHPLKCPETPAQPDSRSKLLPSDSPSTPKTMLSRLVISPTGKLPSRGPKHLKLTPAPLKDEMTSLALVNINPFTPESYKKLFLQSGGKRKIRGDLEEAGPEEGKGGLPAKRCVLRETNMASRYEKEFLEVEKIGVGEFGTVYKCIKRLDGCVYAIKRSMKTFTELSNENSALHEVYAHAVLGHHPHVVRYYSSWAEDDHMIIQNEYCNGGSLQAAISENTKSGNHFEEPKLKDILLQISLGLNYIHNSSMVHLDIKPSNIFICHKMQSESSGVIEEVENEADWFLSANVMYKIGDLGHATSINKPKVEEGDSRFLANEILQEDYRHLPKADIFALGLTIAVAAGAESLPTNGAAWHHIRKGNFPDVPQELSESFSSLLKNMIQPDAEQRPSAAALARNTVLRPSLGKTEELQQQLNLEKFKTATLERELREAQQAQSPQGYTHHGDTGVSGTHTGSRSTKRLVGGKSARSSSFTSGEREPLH

[7] = molecular target: 468 kinases including some pathogenic mutants (Homo sapiens, UniProt P23458); details: read-out: Percent Control
Chain of 468 kinases including some pathogenic mutants (Homo sapiens, UniProt P23458) (P23458 whole entry, change not shown): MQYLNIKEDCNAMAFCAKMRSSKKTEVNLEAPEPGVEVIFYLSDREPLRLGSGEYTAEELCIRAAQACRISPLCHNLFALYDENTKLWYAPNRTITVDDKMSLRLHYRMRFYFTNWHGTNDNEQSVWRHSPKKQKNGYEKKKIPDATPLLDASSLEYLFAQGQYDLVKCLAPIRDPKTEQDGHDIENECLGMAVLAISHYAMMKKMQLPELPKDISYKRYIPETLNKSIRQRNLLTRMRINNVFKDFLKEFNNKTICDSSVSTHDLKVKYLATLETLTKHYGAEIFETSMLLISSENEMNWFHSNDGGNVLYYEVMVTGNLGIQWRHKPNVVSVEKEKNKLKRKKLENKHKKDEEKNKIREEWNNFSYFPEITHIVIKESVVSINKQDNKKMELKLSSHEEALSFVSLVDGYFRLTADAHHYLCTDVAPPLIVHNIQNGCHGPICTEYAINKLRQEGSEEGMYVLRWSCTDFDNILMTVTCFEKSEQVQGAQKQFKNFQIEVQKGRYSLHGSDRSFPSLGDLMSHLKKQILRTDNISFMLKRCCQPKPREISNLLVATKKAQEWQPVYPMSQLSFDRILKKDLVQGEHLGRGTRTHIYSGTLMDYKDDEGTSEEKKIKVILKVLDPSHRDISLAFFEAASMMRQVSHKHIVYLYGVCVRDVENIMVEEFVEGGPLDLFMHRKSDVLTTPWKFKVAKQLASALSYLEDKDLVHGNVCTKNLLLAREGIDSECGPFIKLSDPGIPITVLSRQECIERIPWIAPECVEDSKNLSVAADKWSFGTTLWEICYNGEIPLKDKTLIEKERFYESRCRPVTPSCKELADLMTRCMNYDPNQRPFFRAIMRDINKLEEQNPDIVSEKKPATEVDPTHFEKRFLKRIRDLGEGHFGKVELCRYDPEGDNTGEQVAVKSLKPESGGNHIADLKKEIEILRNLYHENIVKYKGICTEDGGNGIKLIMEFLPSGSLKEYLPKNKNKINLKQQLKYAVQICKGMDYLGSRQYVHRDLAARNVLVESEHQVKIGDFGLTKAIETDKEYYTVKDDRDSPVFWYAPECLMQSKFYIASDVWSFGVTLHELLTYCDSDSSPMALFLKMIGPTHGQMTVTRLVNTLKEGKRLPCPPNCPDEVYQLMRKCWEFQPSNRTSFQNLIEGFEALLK

[8] = molecular target: 468 kinases including some pathogenic mutants (Homo sapiens, UniProt P31152); details: ERK4 (Entrez MAPK4), 100 nM; read-out: Percent Control
[9] = molecular target: 468 kinases including some pathogenic mutants (Homo sapiens, UniProt P36507); details: MEK2 (Entrez MAP2K2), 1000 nM; read-out: Percent Control
Chain of 468 kinases including some pathogenic mutants (Homo sapiens, UniProt P36507) (P36507 whole entry, stated change not applied): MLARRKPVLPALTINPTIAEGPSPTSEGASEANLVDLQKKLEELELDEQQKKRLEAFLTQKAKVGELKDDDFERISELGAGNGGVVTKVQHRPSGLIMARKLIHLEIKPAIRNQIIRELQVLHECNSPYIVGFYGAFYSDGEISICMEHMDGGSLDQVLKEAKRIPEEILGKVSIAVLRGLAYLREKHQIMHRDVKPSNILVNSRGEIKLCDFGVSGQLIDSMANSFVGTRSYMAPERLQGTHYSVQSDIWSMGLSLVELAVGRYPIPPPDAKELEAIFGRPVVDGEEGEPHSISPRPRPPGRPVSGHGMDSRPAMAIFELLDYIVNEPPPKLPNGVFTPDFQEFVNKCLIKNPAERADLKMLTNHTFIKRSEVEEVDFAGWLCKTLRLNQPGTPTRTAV

[10] = molecular target: 468 kinases including some pathogenic mutants (Homo sapiens, UniProt P42336, E545K); details: read-out: Percent Control
[11] = molecular target: 468 kinases including some pathogenic mutants (Homo sapiens, UniProt P42336, I800L); details: read-out: Percent Control
[12] = molecular target: 468 kinases including some pathogenic mutants (Homo sapiens, UniProt P51956); details: NEK3 (Entrez NEK3), 100 nM; read-out: Percent Control
[13] = molecular target: 468 kinases including some pathogenic mutants (Homo sapiens, UniProt P53778); details: p38-gamma (Entrez MAPK12), 100 nM; read-out: Percent Control
[14] = molecular target: 468 kinases including some pathogenic mutants (Homo sapiens, UniProt Q04759); details: PRKCQ (Entrez PRKCQ), 100 nM; read-out: Percent Control
Chain of 468 kinases including some pathogenic mutants (Homo sapiens, UniProt Q04759) (Q04759 whole entry, change not shown): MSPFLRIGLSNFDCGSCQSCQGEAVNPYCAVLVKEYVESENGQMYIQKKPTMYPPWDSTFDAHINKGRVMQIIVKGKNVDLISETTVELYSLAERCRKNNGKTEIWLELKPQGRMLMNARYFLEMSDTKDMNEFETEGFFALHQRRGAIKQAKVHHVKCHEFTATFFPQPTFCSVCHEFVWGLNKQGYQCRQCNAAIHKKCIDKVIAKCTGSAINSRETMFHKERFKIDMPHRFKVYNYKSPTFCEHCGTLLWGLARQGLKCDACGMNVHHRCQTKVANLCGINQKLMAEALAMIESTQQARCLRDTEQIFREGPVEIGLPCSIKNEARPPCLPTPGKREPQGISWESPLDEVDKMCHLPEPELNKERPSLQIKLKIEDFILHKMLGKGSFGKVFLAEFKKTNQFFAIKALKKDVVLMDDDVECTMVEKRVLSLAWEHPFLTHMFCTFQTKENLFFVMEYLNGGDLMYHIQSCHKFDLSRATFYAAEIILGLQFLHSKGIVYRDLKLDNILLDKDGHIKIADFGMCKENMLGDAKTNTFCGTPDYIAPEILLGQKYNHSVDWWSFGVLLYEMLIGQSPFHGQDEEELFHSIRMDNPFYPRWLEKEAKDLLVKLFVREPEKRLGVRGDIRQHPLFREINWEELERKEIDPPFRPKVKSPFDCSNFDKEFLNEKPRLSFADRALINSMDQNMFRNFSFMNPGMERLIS

[15] = molecular target: 468 kinases including some pathogenic mutants (Homo sapiens, UniProt Q16832); details: DDR2 (Entrez DDR2), 100 nM; read-out: Percent Control
Chain of 468 kinases including some pathogenic mutants (Homo sapiens, UniProt Q16832) (Q16832 22-855, stated change not applied): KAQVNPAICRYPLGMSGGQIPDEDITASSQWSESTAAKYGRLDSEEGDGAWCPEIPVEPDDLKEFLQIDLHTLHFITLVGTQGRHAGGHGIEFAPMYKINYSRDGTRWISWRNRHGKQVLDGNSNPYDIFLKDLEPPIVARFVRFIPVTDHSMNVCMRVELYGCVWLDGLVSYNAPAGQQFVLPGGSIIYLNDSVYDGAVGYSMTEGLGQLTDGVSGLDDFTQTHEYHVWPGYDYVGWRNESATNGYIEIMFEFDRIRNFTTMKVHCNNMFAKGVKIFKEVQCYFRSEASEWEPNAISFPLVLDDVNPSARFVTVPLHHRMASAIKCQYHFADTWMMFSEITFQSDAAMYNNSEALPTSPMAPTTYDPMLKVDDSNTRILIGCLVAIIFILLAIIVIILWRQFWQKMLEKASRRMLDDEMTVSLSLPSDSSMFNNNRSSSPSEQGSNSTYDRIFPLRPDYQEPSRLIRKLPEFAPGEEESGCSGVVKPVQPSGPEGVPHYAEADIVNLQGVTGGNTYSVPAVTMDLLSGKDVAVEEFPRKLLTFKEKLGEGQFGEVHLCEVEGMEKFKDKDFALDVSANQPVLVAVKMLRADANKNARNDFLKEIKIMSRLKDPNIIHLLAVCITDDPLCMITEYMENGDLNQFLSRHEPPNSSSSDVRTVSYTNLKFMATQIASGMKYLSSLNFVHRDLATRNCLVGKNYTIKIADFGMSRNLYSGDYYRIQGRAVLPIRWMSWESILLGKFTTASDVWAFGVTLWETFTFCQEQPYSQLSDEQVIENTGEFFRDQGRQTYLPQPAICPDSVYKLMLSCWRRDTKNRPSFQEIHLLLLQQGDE

[16] = molecular target: 468 kinases including some pathogenic mutants (Homo sapiens, UniProt Q5S007, G2019S); details: read-out: Percent Control
[17] = molecular target: 468 kinases including some pathogenic mutants (Homo sapiens, UniProt Q6ZN16); details: MAP3K15 (Entrez MAP3K15), 1000 nM; read-out: Percent Control
[18] = molecular target: 468 kinases including some pathogenic mutants (Homo sapiens, UniProt Q86Z02); details: HIPK1 (Entrez HIPK1), 100 nM; read-out: Percent Control
[19] = molecular target: 468 kinases including some pathogenic mutants (Homo sapiens, UniProt Q96D53); details: ADCK4 (Entrez ADCK4), 100 nM; read-out: Percent Control
[20] = molecular target: 468 kinases including some pathogenic mutants (Homo sapiens, UniProt Q96RR4); details: CAMKK2 (Entrez CAMKK2), 100 nM; read-out: Percent Control
Chain of 468 kinases including some pathogenic mutants (Homo sapiens, UniProt Q96RR4) (Q96RR4 whole entry, change not shown): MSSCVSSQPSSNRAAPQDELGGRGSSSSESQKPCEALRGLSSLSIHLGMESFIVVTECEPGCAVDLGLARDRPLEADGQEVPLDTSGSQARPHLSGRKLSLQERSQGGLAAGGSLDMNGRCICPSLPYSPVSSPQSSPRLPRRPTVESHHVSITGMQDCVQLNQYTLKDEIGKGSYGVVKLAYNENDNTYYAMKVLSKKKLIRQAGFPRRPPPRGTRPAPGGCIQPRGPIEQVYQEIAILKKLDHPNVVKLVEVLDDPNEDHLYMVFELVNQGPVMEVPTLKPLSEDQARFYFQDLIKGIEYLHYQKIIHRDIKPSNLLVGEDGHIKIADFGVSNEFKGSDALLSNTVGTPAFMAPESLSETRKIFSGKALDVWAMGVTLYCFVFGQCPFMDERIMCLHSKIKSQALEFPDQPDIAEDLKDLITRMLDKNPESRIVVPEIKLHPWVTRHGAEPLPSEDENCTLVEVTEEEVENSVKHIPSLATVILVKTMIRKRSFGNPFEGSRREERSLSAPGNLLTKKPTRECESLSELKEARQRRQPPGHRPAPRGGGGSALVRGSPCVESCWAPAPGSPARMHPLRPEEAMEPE

[21] = molecular target: 468 kinases including some pathogenic mutants (Homo sapiens, UniProt Q99558); details: NIK (Entrez MAP3K14), 1000 nM; read-out: Percent Control
[22] = molecular target: 468 kinases including some pathogenic mutants (Homo sapiens, UniProt Q9BQI3); details: EIF2AK1 (Entrez EIF2AK1), 100 nM; read-out: Percent Control
[23] = molecular target: 468 kinases including some pathogenic mutants (Homo sapiens, UniProt Q9H4A3); details: WNK1 (Entrez WNK1), 1000 nM; read-out: Percent Control
[24] = molecular target: 468 kinases including some pathogenic mutants (Homo sapiens, UniProt Q9UM73, C1156Y); details: read-out: Percent Control
[25] = molecular target: 468 kinases including some pathogenic mutants (Homo sapiens, UniProt Q9UPZ9); details: ICK (Entrez ICK), 100 nM; read-out: Percent Control
[26] = molecular target: 468 kinases including some pathogenic mutants (Homo sapiens, UniProt Q9UQM7); details: CAMK2A (Entrez CAMK2A), 100 nM; read-out: Percent Control
[27] = molecular target: 468 kinases including some pathogenic mutants (Homo sapiens, UniProt Q9Y2H9); details: MAST1 (Entrez MAST1), 100 nM; read-out: Percent Control
[28] = molecular target: 468 kinases including some pathogenic mutants (Homo sapiens, UniProt Q9Y2U5); details: MAP3K2 (Entrez MAP3K2), 1000 nM; read-out: Percent Control
[29] = molecular target: 468 kinases including some pathogenic mutants (Homo sapiens, UniProt Q9Y6E0); details: MST3 (Entrez STK24), 100 nM; read-out: Percent Control

With `CN1C(=O)[C@@H](N2CCc3c(nn(Cc4ccccc4)c3C(N)=O)C2=O)COc2cc(Cl)ccc21` [Compound 10, (S)-2-benzyl-6-(8-chloro-5-methyl-4-oxo-2,3,4,5-tetrahydrobenzo[b][1,4]oxazepin-3-yl)-7-oxo-4,5,6,7-tetrahydro-2H-pyrazolo[3,4-c]pyridine-3-carboxamide] the remaining activity at 0.1 µM [1] was 95%, the remaining activity at 0.1 µM [2] was 87% and the “Percent Control” value ([3]; listed as LIJTF500025) was 88%. It also gave a remaining activity at 0.1 µM ([3]; read-out: Percent Control) of 71%, a remaining activity at 0.1 µM [4] of 100% and a remaining activity at 0.1 µM [5] of 99%. For the same molecule, the remaining activity at 0.1 µM [6] was 77%, the remaining activity at 0.1 µM ([7]; JAK1(JH1domain-catalytic) (Entrez JAK1), 100 nM) was 83% and the remaining activity at 0.1 µM [7] was 97%. The remaining activity at 0.1 µM [8] was 86%, the remaining activity at 1 µM [9] was 100% and the remaining activity at 0.1 µM [10] was 75%. It also gave a remaining activity at 0.1 µM [11] of 71%, a remaining activity at 0.1 µM [12] of 100% and a remaining activity at 0.1 µM [13] of 65%. The remaining activity at 0.1 µM [14] was 88%, the remaining activity at 0.1 µM [15] was 84% and the remaining activity at 0.1 µM [16] was 85%. For the same molecule, the remaining activity at 1 µM [17] was 100%, the remaining activity at 0.1 µM [18] was 73% and the remaining activity at 0.1 µM [19] was 88%. The remaining activity at 0.1 µM [20] was 76%, the remaining activity at 1 µM [21] was 100% and the remaining activity at 0.1 µM [22] was 100%. It also gave a remaining activity at 1 µM [23] of 100%, a remaining activity at 0.1 µM [24] of 93% and a remaining activity at 0.1 µM [25] of 100%. It also gave a remaining activity at 0.1 µM [26] of 76%, a remaining activity at 0.1 µM [27] of 67% and a remaining activity at 1 µM [28] of 100%. The remaining activity at 0.1 µM [29] was 97%.
